Data set [1] deals with THP-1. Kind of data set: Antiinflammatory activity against PMA-differentiated and LPS/MSU stimulated human THP-1 cells assessed as increase in cell viability at 5 to 20 uM incubated for 1 hrs followed by LPS stimulation for 12 hrs and MSU addition for 6 hrs by CCK8 assay. In kind it is functional, cell-based. The following applies: dose 5-20 µM, time 19.0 hrs.
Data set [2] addresses NACHT, LRR and PYD domains-containing protein 3 (Homo sapiens) (UniProt Q96P20). Kind of data set: Inhibition of NLRP3 inflammasome activation in PMA-differentiated and LPS/ATP-stimulated human THP-1 cells assessed as inhibition of IL-6 secretion at 20 uM incubated for 1 hrs followed by LPS stimulation for 12 hrs and ATP addition for 0.5 hrs by ELISA. In kind it is cell-based. The following applies: time 13.5 hrs. For orientation: An ELISA detects its analyte on a solid surface through an enzyme-linked reagent.

For data set [3] the target is unchanged. Kind of data set: Inhibition of NLRP3 inflammasome activation in PMA-differentiated and LPS/ATP-stimulated human THP-1 cells assessed as decrease in IL-1beta expression at 5 to 20 uM incubated for 1 hrs followed by LPS stimulation for 12 hrs and ATP addition for 0.5 hrs by western blot analysis. In kind it is cell-based. Conditions: dose 5-20 µM, time 13.5 hrs. On the technique in general: Immunoblotting shows a protein as a band on a membrane.

Data set [4] has as its system THP-1. Kind of data set: Antiinflammatory activity against PMA-differentiated human THP-1 cells assessed as reduction in IL-1beta level at 20 uM incubated for 1 hrs followed by LPS stimulation for 12 hrs and ATP addition for 0.5 hrs by ELISA. The data set is classed as functional, cell-based. The following applies: time 13.5 hrs.
Data set [5] deals with NACHT, LRR and PYD domains-containing protein 3 (Homo sapiens) (UniProt Q96P20). Kind of data set: Inhibition of NLRP3 inflammasome activation in PMA-differentiated and LPS/NIG-stimulated human THP-1 cells assessed as decrease in pro-IL-1beta expression at 20 uM incubated for 1 hrs followed by LPS stimulation for 12 hrs and NIG addition for 2 hrs by western blot analysis. The data set is classed as cell-based. The following applies: time 15.0 hrs.

The target is the same in data set [6]. Kind of data set: Inhibition of NLRP3 inflammasome activation in PMA-differentiated and LPS/ATP-stimulated human THP-1 cells assessed as reduction in total NF-KappaB P65 nuclear expression at 5 to 20 uM incubated for 1 hrs followed by LPS stimulation for 12 hrs and ATP addition for 0.5 hrs by Western blot analysis. In kind it is cell-based. The following applies: dose 5-20 µM, time 13.5 hrs.

The test system of data set [7] is THP-1. Kind of data set: Antiinflammatory activity against PMA-differentiated and LPS/NIG stimulated human THP-1 cells assessed as increase in cell viability at 5 to 20 uM incubated for 1 hrs followed by LPS stimulation for 12 hrs and NIG addition for 2 hrs by LDH assay. The data set is classed as functional, cell-based. The following applies: dose 5-20 µM, time 15.0 hrs.

In data set [8] the target is NACHT, LRR and PYD domains-containing protein 3 (Homo sapiens) (UniProt Q96P20). Kind of data set: Inhibition of NLRP3 inflammasome activation in PMA-differentiated and LPS/NIG-stimulated human THP-1 cells assessed as decrease in IL-1beta expression at 20 uM incubated for 1 hrs followed by LPS stimulation for 12 hrs and NIG addition for 2 hrs by western blot analysis. In kind it is cell-based. Conditions: time 15.0 hrs.

The subject of data set [9] is THP-1. Kind of data set: Cytotoxicity against human THP-1 cells assessed as survival rate at < 40 uM by CCK8 assay. The data set is classed as toxicity, cell-based. Conditions: thp-1, 40 µM. In general terms: Formazan colour is commonly taken as a measure of viable cells.
Data set [10] deals with THP-1. Kind of data set: Antiinflammatory activity against PMA-differentiated and LPS/NIG stimulated human THP-1 cells assessed as increase in cell viability at 5 to 20 uM incubated for 1 hrs followed by LPS stimulation for 12 hrs and NIG addition for 2 hrs by CCK8 assay. In kind it is functional, cell-based. The following applies: dose 5-20 µM, time 15.0 hrs.
For data set [11], the target named is NACHT, LRR and PYD domains-containing protein 3 (Homo sapiens) (UniProt Q96P20). Kind of data set: Inhibition of NLRP3 inflammasome activation in PMA-differentiated and LPS/NIG-stimulated human THP-1 cells assessed as decrease of ASC polymers at 20 uM incubated for 1 hrs followed by LPS stimulation for 12 hrs and NIG addition for 2 hrs by Western blot analysis. In kind it is cell-based. Conditions: time 15.0 hrs.

The target is the same in data set [12]. Kind of data set: Inhibition of NLRP3 inflammasome activation in PMA-differentiated and LPS/NIG-stimulated human THP-1 cells assessed as inhibition of IL-1beta secretion at 20 uM incubated for 1 hrs followed by LPS stimulation for 12 hrs and NIG addition for 2 hrs by ELISA. Conditions: time 15.0 hrs. In kind it is cell-based.
The next data set deals with J774.A1. Kind of data set: Antiinflammatory activity against LPS/ATP-stimulated […] cells assessed as inhibition of ROS release at 20 uM incubated for 1 hrs followed by LPS stimulation for 12 hrs and ATP addition for 0.5 hrs by DCFH-DA staining based confocal microscopy. The following applies: Mus musculus, time 13.5 hrs. In kind it is functional, cell-based.

The target in data set [13] is NACHT, LRR and PYD domains-containing protein 3 (Homo sapiens) (UniProt Q96P20). Kind of data set: Inhibition of NLRP3 inflammasome activation in PMA-differentiated and LPS/ATP-stimulated human THP-1 cells assessed as inhibition of IL-1beta secretion at 5 to 20 uM incubated for 1 hrs followed by LPS stimulation for 12 hrs and ATP addition for 0.5 hrs by ELISA. The data set is classed as cell-based. The following applies: dose 5-20 µM, time 13.5 hrs, DDE = dose-dependent effect.

Data set [14] has the same target. Kind of data set: Inhibition of NLRP3 inflammasome activation in PMA-differentiated and LPS/ATP-stimulated human THP-1 cells assessed as decrease in pro-IL-1beta expression at 5 to 20 uM incubated for 1 hrs followed by LPS stimulation for 12 hrs and ATP addition for 0.5 hrs by western blot analysis. In kind it is cell-based. Conditions: dose 5-20 µM, time 13.5 hrs.

Data set [15] has the same target. Kind of data set: Inhibition of NLRP3 inflammasome activation in PMA-differentiated and LPS/MSU-stimulated human THP-1 cells assessed as decrease in IL-1beta expression at 20 uM incubated for 1 hrs followed by LPS stimulation for 12 hrs and MSU addition for 6 hrs by western blot analysis. In kind it is cell-based. Conditions: time 19.0 hrs.
The target is the same in data set [16]. Kind of data set: Inhibition of NLRP3 inflammasome activation in PMA-differentiated and LPS/MSU-stimulated human THP-1 cells assessed as inhibition of IL-1beta secretion at 20 uM incubated for 1 hrs followed by LPS stimulation for 12 hrs and MSU addition for 6 hrs by ELISA. The data set is classed as cell-based. Conditions: time 19.0 hrs.
The subject of data set [17] is THP-1. Kind of data set: Antiinflammatory activity against PMA-differentiated and LPS/ATP stimulated human THP-1 cells assessed as increase in cell viability at 5 to 20 uM incubated for 1 hrs followed by LPS stimulation for 12 hrs and ATP addition for 0.5 hrs by LDH assay. In kind it is functional, cell-based. The following applies: dose 5-20 µM, time 13.5 hrs.
The next data set relates to J774.1. Kind of data set: Cytotoxicity against mouse J774.1 cells derived macrophage assessed as reduction in cell viability upto 40 uM incubated for 24 hrs by CCK-8 assay. The data set is classed as toxicity, cell-based. The following applies: j774.1, 24 h.
Data set [18] deals with THP-1. Kind of data set: Antiinflammatory activity against PMA-differentiated and LPS/ATP stimulated human THP-1 cells assessed as increase in cell viability at 5 to 20 uM incubated for 1 hrs followed by LPS stimulation for 12 hrs and ATP addition for 0.5 hrs by CCK8 assay. In kind it is functional, cell-based. Conditions: dose 5-20 µM, time 13.5 hrs.

Active and inactive are the calls of the source. The calls are words filed in the database; no cut-off is given here.

Chain of NACHT, LRR and PYD domains-containing protein 3 (Homo sapiens) (Q96P20 whole entry, the tested form may be a part): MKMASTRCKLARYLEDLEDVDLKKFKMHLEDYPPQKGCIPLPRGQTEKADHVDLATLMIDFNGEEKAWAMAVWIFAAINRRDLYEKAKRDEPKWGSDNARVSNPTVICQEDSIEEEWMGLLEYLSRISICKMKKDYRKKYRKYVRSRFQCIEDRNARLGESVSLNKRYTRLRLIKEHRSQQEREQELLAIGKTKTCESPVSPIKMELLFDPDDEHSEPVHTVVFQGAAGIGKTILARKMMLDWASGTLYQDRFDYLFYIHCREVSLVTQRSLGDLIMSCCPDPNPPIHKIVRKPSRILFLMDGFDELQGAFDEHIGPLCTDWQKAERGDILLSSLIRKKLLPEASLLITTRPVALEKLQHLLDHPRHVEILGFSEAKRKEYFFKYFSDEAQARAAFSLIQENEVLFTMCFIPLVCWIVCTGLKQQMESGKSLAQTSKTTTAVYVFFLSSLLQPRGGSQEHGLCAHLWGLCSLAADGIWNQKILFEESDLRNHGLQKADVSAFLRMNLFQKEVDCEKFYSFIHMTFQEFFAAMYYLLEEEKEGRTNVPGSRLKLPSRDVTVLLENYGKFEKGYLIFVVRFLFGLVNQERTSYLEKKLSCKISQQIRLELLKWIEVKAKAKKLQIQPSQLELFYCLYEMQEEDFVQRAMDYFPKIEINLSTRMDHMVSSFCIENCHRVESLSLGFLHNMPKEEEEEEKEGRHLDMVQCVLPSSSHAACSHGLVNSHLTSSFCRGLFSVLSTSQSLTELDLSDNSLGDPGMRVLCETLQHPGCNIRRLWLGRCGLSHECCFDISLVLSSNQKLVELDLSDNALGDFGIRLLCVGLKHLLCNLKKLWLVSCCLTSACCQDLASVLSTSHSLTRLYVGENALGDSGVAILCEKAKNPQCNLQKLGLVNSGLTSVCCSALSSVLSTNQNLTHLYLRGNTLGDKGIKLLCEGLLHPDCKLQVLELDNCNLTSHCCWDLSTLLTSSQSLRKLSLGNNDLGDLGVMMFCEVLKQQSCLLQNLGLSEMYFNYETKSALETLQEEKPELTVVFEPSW

With `CC1(C)C(=O)C=C[C@]2(C)[C@H]3CC[C@@]4(C)[C@H](c5ccoc5)OC(=O)[C@H]5O[C@]54[C@]3(C)[C@H](O)C[C@@H]12` [DEACETYLGEDUNIN], the outcome with THP-1 [1], in the data set on THP-1 [4], with THP-1 [7], in the data set on THP-1 [10], in the data set with J774.A1 and with THP-1 [17] was Active. Further, in the data set with THP-1 [18], the outcome was Active. Further, the inhibition result in data set [2], in [3], in data set [5], in data set [6], in data set [8] and in [11] was “Active” throughout. Moreover, the inhibition entry in data set [12], in [14], in [15] and in data set [16] was “Active” each time. For the same molecule, the Activity entry in the data set on THP-1 [9] and in the data set with J774.1 was “Non-Toxic” in each case. Moreover, in data set [13], the inhibition result is “Dde”.
